According to patent US4426382A, “4-Amino-6,7-dimethoxy-2-piperazinylquinazoline derivatives, their preparation and use” (Sankyo Company Limited, priority 1980, dated 1984):
Counter-ions that a name gives are not always drawn.

Tested on: spontaneously hypertensive rats
Assay: antihypertensive activity: blood pressure after oral administration to conscious spontaneously hypertensive rats
Assay type: in vivo
Conditions: male spontaneously hypertensive rats
Protocol: The animals used in this test were 15 week old male spontaneously hypertensive rats. 3-5 rats were used to test each concentration of each compound. Each animal was treated as follows. […] A polyethylene cannula was then inserted into the abdominal aorta by the method of Weeks and Jones [J. R. Weeks and J. A. Jones, Proc. Soc. […] The other end of the cannula, leading out of the body, was fixed to the neck. One week after the operation, when the animal had recovered from post-operative invasion, this end of the cannula was connected to an apparatus to measure the blood pressure and heart beat directly without the need for any further anesthesia or restraint. The haemomanometer used was an improved type of that originated by Laffan et al. [P. J. Laffan, A. Peterson, S. W. Hitch and C.
The compound under test was suspended at the desired concentration in a 0.3% w/v aqueous solution of carboxymethylcellulose and administered orally in a volume of 2 ml/kg body weight. […] After administration of the sample, the blood pressure and heart beat of each animal were measured for 24 hours at 15 minute intervals.
For purposes of comparison, the same experiment was carried out with various concentrations of the known hypotensive agent, prazosin, in the form of its hydrochloride.
Δmax =Maximum change in blood pressure (mm/Hg) after administration of the compound under test;
Tmax =Time (in hours) after administration of the compound under test required for the blood pressure to obtain a maximum change;
T0.5 max =Time (in hours) after administration of the compound under test for the blood pressure to return to one-half of its maximum value.

`COc1cc2nc(N3CCN(C(=O)[C@@H]4C[C@H]4c4ccccc4)CC3)nc(N)c2cc1OC` (relative stereo) [34 hydrochloride hydrate] was tested, and the “T0.5 max, time after administration for the blood pressure to return to one-half of its maximum value” (“T0.5 max, time after administration” for short) (dose 3 mg/kg oral) was 8 h, the “Tmax, time after administration required for the blood pressure to obtain a maximum change” value (“Tmax, time … to obtain a maximum change” for short) (dose 3 mg/kg oral) was 1 h and the “Δmax, maximum change in blood pressure after administration” value (from here on “Δmax, maximum change in blood pressure”) (dose 3 mg/kg oral) was -33 mmHg. For the same molecule, the “T0.5 max, time after administration” value (dose 10 mg/kg oral) was 12 h, the “Tmax, time … to obtain a maximum change” value (dose 10 mg/kg oral) was 2 h and the “Δmax, maximum change in blood pressure” value (dose 10 mg/kg oral) was -50 mmHg.

`CC=CC(=O)N1CCN(c2nc(N)c3cc(OC)c(OC)cc3n2)CC1` [1 hydrochloride hydrate] was tested, and the “T0.5 max, time after administration” value (dose 3 mg/kg oral) was 8 h, the “Tmax, time … to obtain a maximum change” value (dose 3 mg/kg oral) was 0.25 h and the “Δmax, maximum change in blood pressure” value (dose 3 mg/kg oral) was -35 mmHg. The “T0.5 max, time after administration” value (dose 30 mg/kg oral) was 12 h, the “Tmax, time … to obtain a maximum change” value (dose 30 mg/kg oral) was 0.5 h and the “Δmax, maximum change in blood pressure” value (dose 30 mg/kg oral) was -40 mmHg.

In the case of `CCC=CC(=O)N1CCN(c2nc(N)c3cc(OC)c(OC)cc3n2)CC1` [5 hydrochloride], the “Tmax, time … to obtain a maximum change” value (dose 3 mg/kg oral) is reported as 0.5 h, the “Δmax, maximum change in blood pressure” value (dose 3 mg/kg oral) is reported as -40 mmHg and the “T0.5 max, time after administration” value (dose 3 mg/kg oral, 3 mg/kg) is reported as 7 h. For the same molecule, the “T0.5 max, time after administration” value (dose 30 mg/kg oral, 30 mg/kg) was 14 h, the “Tmax, time … to obtain a maximum change” value (dose 30 mg/kg oral, 30 mg/kg) was 0.75 h and the “Δmax, maximum change in blood pressure” value (dose 30 mg/kg oral, 30 mg/kg) was -48 mmHg.

`CC=CC(=O)N1CCCN(c2nc(N)c3cc(OC)c(OC)cc3n2)CC1` [9 hydrochloride hydrate] was tested, and the “T0.5 max, time after administration” value (dose 3 mg/kg oral) was 3.5 h, the “Tmax, time … to obtain a maximum change” value (dose 3 mg/kg oral) was 0.5 h and the “Δmax, maximum change in blood pressure” value (dose 3 mg/kg oral) was -25 mmHg. For the same molecule, the “T0.5 max, time after administration” value (dose 30 mg/kg oral) was 5 h, the “Tmax, time … to obtain a maximum change” value (dose 30 mg/kg oral) was 0.75 h and the “Δmax, maximum change in blood pressure” value (dose 30 mg/kg oral) was -35 mmHg.

For `COc1cc2nc(N3CCN(C(=O)c4ccc(OCc5ccccc5)cc4)CC3)nc(N)c2cc1OC` [14 hydrochloride dihydrate], the “T0.5 max, time after administration” value (dose 3 mg/kg oral) was 9.5 h, the “Tmax, time … to obtain a maximum change” value (dose 3 mg/kg oral) was 6 h and the “Δmax, maximum change in blood pressure” value (dose 3 mg/kg oral) was -18 mmHg. The “T0.5 max, time after administration” value (dose 10 mg/kg oral) was 12 h, the “Tmax, time … to obtain a maximum change” value (dose 10 mg/kg oral) was 6 to 7 h and the “Δmax, maximum change in blood pressure” value (dose 10 mg/kg oral) was -29 mmHg. For the same molecule, the “T0.5 max, time after administration” value (dose 30 mg/kg oral) was 15 h, the “Tmax, time … to obtain a maximum change” value (dose 30 mg/kg oral) was 6 to 7 h and the “Δmax, maximum change in blood pressure” value (dose 30 mg/kg oral) was -35 mmHg.

In the case of `COc1cc2nc(N3CCN(C(=O)C(C)Oc4ccccc4)CC3)nc(N)c2cc1OC` (stereo not drawn) [25 hydrochloride hemihydrate], the “T0.5 max, time after administration” value (dose 1 mg/kg oral) is reported as 7 h, the “Tmax, time … to obtain a maximum change” value (dose 1 mg/kg oral) is reported as 1 h and the “Δmax, maximum change in blood pressure” value (dose 1 mg/kg oral) is reported as -40 mmHg. For the same molecule, the “T0.5 max, time after administration” value (dose 3 mg/kg oral) was 14 h, the “Tmax, time … to obtain a maximum change” value (dose 3 mg/kg oral) was 1 h and the “Δmax, maximum change in blood pressure” value (dose 3 mg/kg oral) was -70 mmHg.

For `COc1cc2nc(N3CCN(C(=O)COc4ccccc4)CC3)nc(N)c2cc1OC` [27 hydrochloride hydrate], the “T0.5 max, time after administration” value (dose 3 mg/kg oral) was 8 h, the “Tmax, time … to obtain a maximum change” value (dose 3 mg/kg oral) was 5 h and the “Δmax, maximum change in blood pressure” value (dose 3 mg/kg oral) was -20 mmHg. The “T0.5 max, time after administration” value (dose 30 mg/kg oral) was 8 h, the “Tmax, time … to obtain a maximum change” value (dose 30 mg/kg oral) was 5 h and the “Δmax, maximum change in blood pressure” value (dose 30 mg/kg oral) was -40 mmHg.

In the case of `COc1cc2nc(N3CCN(C(=O)Cc4ccccc4)CC3)nc(N)c2cc1OC` [28 hydrochloride hydrate], the “T0.5 max, time after administration” value (dose 3 mg/kg oral) is reported as 9 h, the “Tmax, time … to obtain a maximum change” value (dose 3 mg/kg oral) is reported as 1 h and the “Δmax, maximum change in blood pressure” value (dose 3 mg/kg oral) is reported as -30 mmHg. For the same molecule, the “T0.5 max, time after administration” value (dose 30 mg/kg oral) was 10 h, the “Tmax, time … to obtain a maximum change” value (dose 30 mg/kg oral) was 4 h and the “Δmax, maximum change in blood pressure” value (dose 30 mg/kg oral) was -50 mmHg.

For `COc1cc2nc(N3CCN(C(=O)CCc4ccccc4)CC3)nc(N)c2cc1OC` [29 hydrochloride hydrate], the “T0.5 max, time after administration” value (dose 3 mg/kg oral) was 8 h, the “Tmax, time … to obtain a maximum change” value (dose 3 mg/kg oral) was 2 h and the “Δmax, maximum change in blood pressure” value (dose 3 mg/kg oral) was -30 mmHg. For the same molecule, the “T0.5 max, time after administration” value (dose 30 mg/kg oral) was 12 h, the “Tmax, time … to obtain a maximum change” value (dose 30 mg/kg oral) was 5 h and the “Δmax, maximum change in blood pressure” value (dose 30 mg/kg oral) was -45 mmHg.

`COc1cc2nc(N3CCN(C(=O)C=C4CCCCC4)CC3)nc(N)c2cc1OC` [31 hydrochloride hydrate] was tested, and the “T0.5 max, time after administration” value (dose 3 mg/kg oral) was 10 h, the “Tmax, time … to obtain a maximum change” value (dose 3 mg/kg oral) was 1 to 2 h and the “Δmax, maximum change in blood pressure” value (dose 3 mg/kg oral) was -25 mmHg. The “T0.5 max, time after administration” value (dose 30 mg/kg oral) was 14 h, the “Tmax, time … to obtain a maximum change” value (dose 30 mg/kg oral) was 1 to 2 h and the “Δmax, maximum change in blood pressure” value (dose 30 mg/kg oral) was -40 mmHg.

In the case of `COc1cc2nc(N3CCN(C(=O)C=C4CCCC4)CC3)nc(N)c2cc1OC` [32 hydrochloride hydrate], the “T0.5 max, time after administration” value (dose 3 mg/kg oral) is reported as 10 h, the “Tmax, time … to obtain a maximum change” value (dose 3 mg/kg oral) is reported as 1 to 2 h and the “Δmax, maximum change in blood pressure” value (dose 3 mg/kg oral) is reported as -40 mmHg. For the same molecule, the “T0.5 max, time after administration” value (dose 30 mg/kg oral) was 7 h, the “Tmax, time … to obtain a maximum change” value (dose 30 mg/kg oral) was 1 to 2 h and the “Δmax, maximum change in blood pressure” value (dose 30 mg/kg oral) was -80 mmHg.

`COc1cc2nc(N3CCN(C(=O)C4(c5ccccc5)CC4)CC3)nc(N)c2cc1OC` [33 hydrochloride hydrate] was tested, and the “T0.5 max, time after administration” value (dose 30 mg/kg oral) was 8.5 h, the “Tmax, time … to obtain a maximum change” value (dose 30 mg/kg oral) was 1 h and the “Δmax, maximum change in blood pressure” value (dose 30 mg/kg oral) was -50 mmHg.

With `COc1cc2nc(N3CCN(C(=O)c4ccc(OCc5ccccc5)c(OC)c4)CC3)nc(N)c2cc1OC` [94 hydrochloride hemihydrate] the “T0.5 max, time after administration” value (dose 30 mg/kg oral) was 7 h, the “Tmax, time … to obtain a maximum change” value (dose 30 mg/kg oral) was 5 h and the “Δmax, maximum change in blood pressure” value (dose 30 mg/kg oral) was -28 mmHg.

In the case of `COc1cc2nc(N3CCN(C(=O)c4ccc(OCc5ccccc5)c(Cl)c4)CC3)nc(N)c2cc1OC` [98 hydrochloride hemihydrate], the “T0.5 max, time after administration” value (dose 30 mg/kg oral) is reported as 8 h, the “Tmax, time … to obtain a maximum change” value (dose 30 mg/kg oral) is reported as 4 h and the “Δmax, maximum change in blood pressure” value (dose 30 mg/kg oral) is reported as -30 mmHg.

In the case of `COc1cc2nc(N3CCN(C(=O)c4ccc(OC(C)c5ccccc5)cc4)CC3)nc(N)c2cc1OC` (stereo not drawn) [103 hydrochloride sesquihydrate], the “T0.5 max, time after administration” value (dose 10 mg/kg oral) is reported as 9.5 h, the “Tmax, time … to obtain a maximum change” value (dose 10 mg/kg oral) is reported as 5 to 6 h and the “Δmax, maximum change in blood pressure” value (dose 10 mg/kg oral) is reported as -30 mmHg. The “T0.5 max, time after administration” value (dose 30 mg/kg oral) was 13 h, the “Tmax, time … to obtain a maximum change” value (dose 30 mg/kg oral) was 5 to 6 h and the “Δmax, maximum change in blood pressure” value (dose 30 mg/kg oral) was -41 mmHg.

For `C=C(C)C(=O)N1CCN(c2nc(N)c3cc(OC)c(OC)cc3n2)CC1` [Compound No. 2, 4-Amino-6,7-dimethoxy-2-[4-(2-methylacryloyl)-1-piperazinyl]quinazoline], the “T0.5 max, time after administration” value (dose 3 mg/kg oral) was 3.5 h, the “Tmax, time … to obtain a maximum change” value (dose 3 mg/kg oral) was 0.75 h and the “Δmax, maximum change in blood pressure” value (dose 3 mg/kg oral) was -25 mmHg. For the same molecule, the “T0.5 max, time after administration” value (dose 30 mg/kg oral) was 9 h, the “Tmax, time … to obtain a maximum change” value (dose 30 mg/kg oral) was 0.5 h and the “Δmax, maximum change in blood pressure” value (dose 30 mg/kg oral) was -35 mmHg.

`CC=C(C)C(=O)N1CCN(c2nc(N)c3cc(OC)c(OC)cc3n2)CC1` [Compound No. 3, 4-Amino-2-[4-(2,3-dimethylacryloyl)-1-piperazinyl]-6,7-dimethoxyquinazoline] was tested, and the “T0.5 max, time after administration” value (dose 30 mg/kg oral) was 2 h, the “Tmax, time … to obtain a maximum change” value (dose 30 mg/kg oral) was 0.5 h and the “Δmax, maximum change in blood pressure” value (dose 30 mg/kg oral) was -30 mmHg.

`COc1cc2nc(N3CCN(C(=O)C=C(C)C)CC3)nc(N)c2cc1OC` [Compound No. 4, 4-Amino-2-[4-(3,3-dimethylacryloyl)-1-piperazinyl]-6,7-dimethoxyquinazoline] was tested, and the “T0.5 max, time after administration” value (dose 30 mg/kg oral) was 3 h, the “Tmax, time … to obtain a maximum change” value (dose 30 mg/kg oral) was 0.5 h and the “Δmax, maximum change in blood pressure” value (dose 30 mg/kg oral) was -30 mmHg.

With `CCC=CC(=O)N1CCN(c2nc(N)c3cc(OC)c(OC)cc3n2)CC1` [Compound No. 5, 4-Amino-6,7-dimethoxy-2-[4-(2-pentenoyl)-1-piperazinyl]quinazoline] the “Tmax, time … to obtain a maximum change” value (dose 3 mg/kg oral) was 0.5 h, the “Δmax, maximum change in blood pressure” value (dose 3 mg/kg oral) was -40 mmHg and the “T0.5 max, time after administration” value (dose 3 mg/kg oral, 3 mg/kg) was 9 h. The “T0.5 max, time after administration” value (dose 30 mg/kg oral, 30 mg/kg) was 11.5 h, the “Tmax, time … to obtain a maximum change” value (dose 30 mg/kg oral, 30 mg/kg) was 0.5 h and the “Δmax, maximum change in blood pressure” value (dose 30 mg/kg oral, 30 mg/kg) was -50 mmHg.
